Results from patent publication US5910494A, “Hypolipidemic 1,4-benzothiazepine-1,1-dioxides” (Glaxo Wellcome Inc., priority 1997, dated 1999).

Test system: ileal bile acid active uptake transport system
Test: In vivo inhibition of bile acid uptake: fecal excretion of 75SeHCAT (% inhibition of 75SeHCAT)
Parameters: species or system Male Spraque-Dawley rats
Conditions: oral gavage, twice daily for two days, rat, feces over 24 hr
Text: In vivo inhibition of bile acid uptake
Inhibiting intestinal bile acid absorption with bile acid sequestrants or surgically with partial ileal bypass surgery is an effective way to decrease plasma LDL cholesterol concentration. Another approach to decreasing bile acid absorption is inhibiting the ileal bile acid active uptake transport system. It has been shown that this inhibition, as measured by the fecal excretion of bile acids results in hypocholesterolemic activity. (1) Lewis, M. C.; Brieaddy, L. E.; and Root, C. Effects of 2164U90 on Ileal Bile Acid Absorption and Serum Cholesterol in Rats and Mice. J. Lipid. Research., 1995, 36, 1098-1105.
Fecal Excretion of Bile Acids
Male Spraque-Dawley rats weighing 220-260 g were housed in individual cages and fed normal chow. The rats were divided into 6 treatment groups of 10 to 12 rats per group. The rats were dosed by oral gavage(1 mL/100 g body weight) with test compounds as a suspension in 0.5% methylcellulose at 9:00 am and 3:30 pm for two days. The control group received 0.5% methylcellulose. Two hours after the morning dose on day two, the rats were given a trace amount(1.3 nmoles) of 23, 25-^75 Se-homocholic acid taurine(^75 SeHCAT) in 1.0 mL saline orally. ^75 SeHCAT, a synthetic gamma emitting bile acid analog which is absorbed by the ileal bile acid uptake system similar to taurocholic acid, has been used clinically as a measure of ileal bile acid absorptionl,^1,2. Feces were collected over the 24 hr following ^75 SeHCAT administration. Fecal content of ^75 SeHCAT was determined using a Packard Auto-Gamma 5000 Series gamma-counter. Representative data are tabulated in Table 1 as the % inhibition of ^75 SeHCAT.

Structure (SMILES)	% Inhibition of ^75 SeHCAT (0.1 mg/kg)	% Inhibition of ^75 SeHCAT (0.3 mg/kg)	% Inhibition of ^75 SeHCAT (1.0 mg/kg)
CCCC[C@]1(CC)CS(=O)(=O)c2cc(OC)ccc2[C@@H](c2ccccc2)N1 (relative stereo) [Example 10, (+-)-Trans-3-butyl-3-ethyl-2,3,4,5-tetrahydro-8-methoxy-5-phenyl-1,4-benzothiazepine 1,1-dioxide]	33%	53%	
CCCC[C@]1(CC)CS(=O)(=O)c2cc(O)ccc2[C@@H](c2ccccc2)N1 (relative stereo) [Example 11, (+-)-trans-3-butyl-3-ethyl-2,3,4,5-tetrahydro-5-phenyl-1,4-benzothiazepine-8-ol 1,1-dioxide]	71%	72%	
CCCC[C@]1(CC)CS(=O)(=O)c2cc(OC)c(C=O)cc2[C@@H](c2ccccc2)N1 (relative stereo) [Example 14, (+-)-Trans-3-butyl-3-ethyl-2,3,4,5-tetrahydro-8-methoxy-5-phenyl-1,4-benzothiazepine-7-carbaldehyde 1,1-dioxide]		41%	56%
CCCC[C@]1(CC)CS(=O)(=O)c2cc(O)c(C=O)cc2[C@@H](c2ccccc2)N1 (relative stereo) [Example 16, (+-)-Trans-3-butyl-3-ethyl-2,3,4,5-tetrahydro-8-hydroxy-5-phenyl-1,4-benzothiazepine-7-carbaldehyde 1,1-dioxide]		34%	44%
CCCC[C@]1(CC)CS(=O)(=O)c2cc(S(=O)(=O)O)ccc2[C@@H](c2ccccc2)N1 (relative stereo) [Example 18, (+-)-Trans-3-butyl-3-ethyl-2,3,4,5-tetrahydro-5-phenyl-1,4-benzothiazepine-8-sulfonic acid 1,1-dioxide]		12%	39%
CCCC[C@]1(CC)CS(=O)(=O)c2cc(OC)c(COC)cc2[C@@H](c2ccccc2)N1 (relative stereo) [Example 24, (+-)-Trans-3-butyl-3-ethyl-2,3,4,5-tetrahydro-8-methoxy-7-(methoxymethyl)-5-phenyl-1,4-benzothiazepine 1,1-dioxide]		24%	49%
CCCC[C@]1(CC)CS(=O)(=O)c2cc(OC)c(OC)cc2[C@@H](c2ccccc2)N1OC(C)=O (relative stereo) [Example 45, (+-)-Trans-3-butyl-3-ethyl-5-phenyl-2,3,4,5-tetrahydro-7,8-dimethoxy-1,4-benzothiazepin-4-yl acetate S,S-dioxide]		6%	26%
CCCC[C@]1(CC)CS(=O)(=O)c2cc(OC)c(OC)cc2[C@@H](c2ccccc2)N1 [Example 1, (3R,5R)-3-butyl-3-ethyl-2,3,4,5-tetrahydro-7,8-dimethoxy-5-phenyl-1-4-benzothiazepine 1,1-dioxide]	54%	51%	
CCCC[C@]1(CC)CS(=O)(=O)c2cc(O)c(O)cc2[C@@H](c2ccccc2)N1 [Example 7, (3R,5R)-3-Butyl-3-ethyl-2,3,4,5-tetrahydro-5-phenyl-1,4-benzothiazepine-7,8-diol 1,1-dioxide]	72%	65%	
CCCC[C@]1(CC)CS(=O)(=O)c2cc(O)c(OC)cc2[C@@H](c2ccccc2)N1 [Example 9, (3R,5R)-3-Butyl-3-ethyl-2,3,4,5-tetrahydro-7-methoxy-5-phenyl-1,4-benzothiazepine-8-ol 1,1-dioxide]	70%	80%	
